Measured values taken from PubChem BioAssay AID1963840 (Molecular Pharmacology Branch, DTP, NCI, 2024).

System: 695427-040-R-J1-PDC complex spheroid viability
Test: Anticancer human tumor 695427-040-R-J1-PDC patient-derived colon adenocarcinoma cell line growth inhibition [POLQ]
Conditions: for IC50: curve of first compound; for viability, T/C: stronger effect = lower value; active means viability on the fitted dose curve at most 10% of control; inactive means the rest
Method in brief: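 Patient-derived tumour cells were co-cultured with HUVEC and mesenchymal stem cells as multicellular spheroids at 37 °C. They were treated with POLQ inhibitors (novobiocin, ART-558, RP6685) alone or combined with other agents. Top concentrations were at or near clinical Cmax (otherwise 10 microM; SN-38 at 1 microM), decreasing in half-log steps.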
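Further: spheroids exposed to compounds for seven days.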
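Wherever viability, T/C is given: 100% = DMSO vehicle control viability.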

C=CCn1c(=O)c2cnc(Nc3ccc(N4CCN(C)CC4)cc3)nc2n1-c1cccc(C(C)(C)O)n1 + Cc1cccc(N(C)C(=O)C2C(O)CCN2c2nc(C)cc(C(F)(F)F)c2C#N)c1
> 1000 nM: IC50 (second compound 0.0316 µM) | IC50 (second compound 0.1 µM) | IC50 (second compound 0.316 µM) | IC50 (second compound 1 µM) | IC50 (second compound 3.16 µM) | IC50 (second compound 10 µM)
inactive: viability, T/C (second compound 0.0316 µM, first compound 0.00316 µM) 100% | viability, T/C (second compound 0.0316 µM, first compound 0.01 µM) 99.4% | viability, T/C (second compound 0.0316 µM, first compound 0.0316 µM) 101% | viability, T/C (second compound 0.0316 µM, first compound 0.1 µM) 92.6% | viability, T/C (second compound 0.0316 µM, first compound 0.316 µM) 94.3% | viability, T/C (second compound 0.0316 µM, first compound 1 µM) 83.6% | viability, T/C (second compound 0.1 µM, first compound 0.00316 µM) 115% | viability, T/C (second compound 0.1 µM, first compound 0.01 µM) 108% | viability, T/C (second compound 0.1 µM, first compound 0.0316 µM) 93.2% | viability, T/C (second compound 0.1 µM, first compound 0.1 µM) 103% | viability, T/C (second compound 0.1 µM, first compound 0.316 µM) 93.4% | viability, T/C (second compound 0.1 µM, first compound 1 µM) 69.5% | viability, T/C (second compound 0.316 µM, first compound 0.00316 µM) 105% | viability, T/C (second compound 0.316 µM, first compound 0.01 µM) 121% | viability, T/C (second compound 0.316 µM, first compound 0.0316 µM) 95.5% | viability, T/C (second compound 0.316 µM, first compound 0.1 µM) 92.5% | viability, T/C (second compound 0.316 µM, first compound 0.316 µM) 107% | viability, T/C (second compound 0.316 µM, first compound 1 µM) 90.1% | viability, T/C (second compound 1 µM, first compound 0.00316 µM) 109% | viability, T/C (second compound 1 µM, first compound 0.01 µM) 95.9% | viability, T/C (second compound 1 µM, first compound 0.0316 µM) 102% | viability, T/C (second compound 1 µM, first compound 0.1 µM) 100% | viability, T/C (second compound 1 µM, first compound 0.316 µM) 98.1% | viability, T/C (second compound 1 µM, first compound 1 µM) 64.2% | viability, T/C (second compound 3.16 µM, first compound 0.00316 µM) 91.8% | viability, T/C (second compound 3.16 µM, first compound 0.01 µM) 90.8% | viability, T/C (second compound 3.16 µM, first compound 0.0316 µM) 88.9% | viability, T/C (second compound 3.16 µM, first compound 0.1 µM) 89.3% | viability, T/C (second compound 3.16 µM, first compound 0.316 µM) 91.4% | viability, T/C (second compound 3.16 µM, first compound 1 µM) 69.5% | viability, T/C (second compound 10 µM, first compound 0.00316 µM) 93.9% | viability, T/C (second compound 10 µM, first compound 0.01 µM) 89.3% | viability, T/C (second compound 10 µM, first compound 0.0316 µM) 87.7% | viability, T/C (second compound 10 µM, first compound 0.1 µM) 92.7% | viability, T/C (second compound 10 µM, first compound 0.316 µM) 91.4% | viability, T/C (second compound 10 µM, first compound 1 µM) 67.9%
